Test results published in patent US9670166B2, “Substituted bicyclic dihydropyrimidinones and their use as inhibitors of neutrophil elastase activity” (Boehringer Ingelheim International GmbH, priority 2013, dated 2017).
“And” between values parts separate entries of the source, which are not always exact repeats. Equal entries are not always repeated.

Tests used:
[1] = Metabolic stability with human liver microsomes; conditions: pooled human liver microsomes 1 mg/ml, test compound 1 μM, 37° C., NADPH
[2] = Metabolic stability with human hepatocytes; format: in vitro ADME; conditions: human hepatocyte suspension, 1 μM, scaled by well stirred model
Caco-2 cells = test: Drug transport across human Caco-2 cells; format: in vitro ADME; conditions: for Efflux ratio: PEBA/PEAB; for PEBA: basal-to-apical; for PEBA / PEAB: Caco-2 monolayers, pH 7.2, 37° C.; for PEAB: apical-to-basal
Aqueous solubility = format: physicochemical; conditions: McIlvaine buffer pH 6.8, 2.5% DMSO, 24 h shaking
Description: Assay for Determination of Aqueous Solubility […] After 24 h of shaking, the solutions or suspensions are filtered and analyzed by LC-UV. The amount dissolved in buffer is compared to the amount dissolved in the acetonitrile/water (1/1) solution.

Row | t1/2 INVITRO [1] | CL (predicted human hepatic in vivo blood clearance) [2] | Aqueous solubility (Aqueous solubility) | Structure (SMILES) | other results
1 | >2.17 h | – | – | CCNC(=O)N1C(=O)N(c2ccnc(C(F)(F)F)c2)C2=C(C(=O)CC2)C1c1ccc(C#N)cc1 (racemic) [Example 54.2] | –
2 | >2.17 h | – | – | CS(=O)(=O)c1cc(C#N)ccc1C1C2=C(CCC2=O)N(c2cccc(C(F)(F)F)c2)C(=O)N1CC(=O)N1CC2CC2C1 (centres unmarked) [Example 22.4] | –
3 | 1.67 h | – | – | CS(=O)(=O)c1cc(C#N)ccc1C1C2=C(CCC2=O)N(c2cccc(C(F)(F)F)c2)C(=O)N1CCCO (centres unmarked) [Example 24.1] | –
4 | – | 0 mL/min/kg | – | CC(C)(O)CNC(=O)N1C(=O)N(c2cccc(C(F)(F)F)c2)C2=C(C(=O)CC2)[C@H]1c1ccc(C#N)cc1 [Example 41A, (R)-4-(4-Cyanophenyl)-N-(2-hydroxy-2-methylpropyl)-2,5-dioxo-1-(3-(trifluoro-methyl)phenyl)-4,5,6,7-tetrahydro-1H-cyclopenta[d]pyrimidine-3(2H)-carboxamide] | –
5 | – | 5 mL/min/kg | 67 µg/mL | N#Cc1ccc(C2C3=C(CCC3=O)N(c3cccc(C(F)(F)F)c3)C(=O)N2C(=O)N[C@H]2COC[C@H]2O)cc1 (some centres unmarked) [Example 42.6] | –
6 | >2.17 h | 0 mL/min/kg | 56 µg/mL | N#Cc1ccc([C@@H]2C3=C(CCC3=O)N(c3cccc(C(F)(F)F)c3)C(=O)N2C(=O)N[C@H]2COC[C@@H]2O)cc1 [Example 45.5] | –
7 | >2.17 h | – | 19 µg/mL | CS(=O)(=O)c1cc(C#N)ccc1[C@@H]1C2=C(CCC2=O)N(c2cccc(C(F)(F)F)c2)C(=O)N1C(=O)NC1CC1 [Example 47.4] | PEAB (Caco-2 cells): 7.74 ×10⁻⁶ cm/s; PEBA (Caco-2 cells): 85.5 ×10⁻⁶ cm/s
8 | >2.17 h | – | 16 µg/mL | CC(C)NC(=O)N1C(=O)N(c2cccc(C(F)(F)F)c2)C2=C(C(=O)CC2)[C@H]1c1ccc(C#N)cc1S(C)(=O)=O [Example 47.5] | PEAB (Caco-2 cells): 19.2 ×10⁻⁶ cm/s; PEBA (Caco-2 cells): 86.7 ×10⁻⁶ cm/s
9 | >2.17 h | 0 mL/min/kg | 32 µg/mL | CS(=O)(=O)CCNC(=O)N1C(=O)N(c2cccc(C(F)(F)F)c2)C2=C(C(=O)CC2)C1c1ccc(C#N)cc1F (centres unmarked) [Example 49.3] | –
10 | – | 1 mL/min/kg | – | CNC(=O)N1C(=O)N(c2cccc(C(F)(F)F)c2)C2=C(C(=O)CC2)C1c1ccc(C#N)cn1 (centres unmarked) [Example 50.1] | –
11 | >2.17 h | – | 41 µg/mL | CNC(=O)N1C(=O)N(c2cccc(C(F)F)c2)C2=C(C(=O)CC2)C1c1ccc(C#N)cc1 (centres unmarked) [Example 52.1] | Efflux ratio (Caco-2 cells): 1.0; PEAB (Caco-2 cells): 57.1 ×10⁻⁶ cm/s; PEBA (Caco-2 cells): 58.3 ×10⁻⁶ cm/s
12 | >2.17 h | – | 91 µg/mL | N#Cc1ccc(C2C3=C(CCC3=O)N(c3cccc(C(F)F)c3)C(=O)N2C(=O)NCCO)cc1 (centres unmarked) [Example 52.3] | –
13 | >2.17 h | – | 70 µg/mL | CC(C)(O)CNC(=O)N1C(=O)N(c2cccc(C(F)F)c2)C2=C(C(=O)CC2)C1c1ccc(C#N)cc1 (centres unmarked) [Example 52.5] | Efflux ratio (Caco-2 cells): 14.1; PEAB (Caco-2 cells): 4.45 ×10⁻⁶ cm/s; PEBA (Caco-2 cells): 62.7 ×10⁻⁶ cm/s
14 | – | 8 mL/min/kg | – | N#Cc1ccc([C@@H]2C3=C(CCC3=O)N(c3cccc(C(F)F)c3)C(=O)N2C(=O)NCCCO)cc1 [Example 52A, (R)-4-(4-Cyanophenyl)-1-(3-(difluoromethyl)phenyl)-N-(3-hydroxypropyl)-2,5-dioxo-4,5,6,7-tetrahydro-1H-cyclopenta[d]pyrimidine-3(2H)-carboxamide] | –
15 | – | – | 34 µg/mL | CS(=O)(=O)c1cc(C#N)ccc1C1C2=C(CCC2=O)N(c2cccc(C(F)F)c2)C(=O)N1C(=O)NC1CC1 (centres unmarked) [Example 53.3] | –

Further lines, the compound ahead of its results:

Row | Structure (SMILES) | t1/2 INVITRO [1] | CL (predicted human hepatic in vivo blood clearance) [2] | Aqueous solubility (Aqueous solubility) | other results
16 | CN(C)C(=O)CN1C(=O)N(c2cccc(C(F)(F)F)c2)C2=C(C(=O)CC2)C1c1ccc(C#N)cc1 (centres unmarked) [Example 6.2] | – | 6 mL/min/kg | – | –
17 | N#Cc1ccc(C2C3=C(CCC3=O)N(c3cccc(C(F)(F)F)c3)C(=O)N2CC(=O)N2CCC2)cc1 (centres unmarked) [Example 6.3] | >2.17 h | 4 mL/min/kg | – | –
18 | CNC(=O)N1C(=O)N(c2cccc(C(F)(F)F)c2)C2=C(C(=O)CC2)[C@H]1c1ccc(C#N)cc1 [Example 7.1A, (R)-4-(4-Cyanophenyl)-N-methyl-2,5-dioxo-1-(3-(trifluoromethyl)phenyl)-4,5,6,7-tetrahydro-1H-cyclopenta[d]pyrimidine-3(2H)-carboxamide] | – | 3 mL/min/kg | – | –
19 | N#Cc1ccc([C@@H]2C3=C(CCC3=O)N(c3cccc(C(F)(F)F)c3)C(=O)N2C(=O)NCCO)cc1 [Example 7.2A, (R)-4-(4-Cyanophenyl)-N-(2-hydroxyethyl)-2,5-dioxo-1-(3-(trifluoromethyl)phenyl)-4,5,6,7-tetrahydro-1H-cyclopenta[d]pyrimidine-3(2H)-carboxamide] | – | 0 mL/min/kg | – | –
20 | N#Cc1ccc(C2C3=C(CCC3=O)N(c3cccc(C(F)(F)F)c3)C(=O)N2C(=O)NCCCO)cc1 (centres unmarked) [Example 7.3] | >2.17 h | 7 mL/min/kg | – | Efflux ratio (Caco-2 cells): 7.1
21 | C[S+]([O-])CCNC(=O)N1C(=O)N(c2cccc(C(F)(F)F)c2)C2=C(C(=O)CC2)C1c1ccc(C#N)cc1 (centres unmarked) [Example 7.6] | >2.17 h | – | – | –
22 | CS(=O)(=O)N1C(=O)N(c2cccc(C(F)(F)F)c2)C2=C(C(=O)CC2)[C@H]1c1ccc(C#N)cc1 [Example 9A, (R)-4-(3-(Methylsulfonyl)-2,5-dioxo-1-(3-(trifluoromethyl)phenyl)-2,3,4,5,6,7-hexahydro-1H-cyclopenta[d]pyrimidin-4-yl)benzonitrile] | – | 0 mL/min/kg | – | –
23 | CCS(=O)(=O)c1cc(C#N)ccc1C1NC(=O)N(c2cccc(C(F)(F)F)c2)C2=C1C(=O)CC2 (centres unmarked) [Example 14, 4-(2,5-Dioxo-1-(3-(trifluoromethyl)phenyl)-2,3,4,5,6,7-hexahydro-1H-cyclopenta[d]pyrimidin-4-yl)-3-(ethylsulfonyl)benzonitrile] | – | 4 mL/min/kg | – | –
24 | CS(=O)(=O)c1cc(C#N)ccc1C1NC(=O)N(c2cccc(C(F)F)c2)C2=C1C(=O)CC2 (centres unmarked) [Example 15.4, 4-(1-(3-(difluoromethyl)phenyl)-2,5-dioxo-2,3,4,5,6,7-hexahydro-1H-cyclopenta[d]pyrimidin-4-yl)-3-(methylsulfonyl)benzonitrile] | – | 0 mL/min/kg | – | –
25 | CS(=O)(=O)c1cc(C#N)ccc1[C@@H]1C2=C(CCC2=O)N(c2cccc(C(F)(F)F)c2)C(=O)N1CC#N [Example 23, (S)-4-(3-(Cyanomethyl)-2,5-dioxo-1-(3-(trifluoromethyl)phenyl)-2,3,4,5,6,7-hexahydro-1H-cyclopenta[d]pyrimidin-4-yl)-3-(methylsulfonyl)benzonitrile] | – | 0 mL/min/kg | – | –
26 | CN1C(=O)N(c2cccc(C(F)(F)F)c2)C2=C(C(=O)CC2)[C@H]1c1ccc(C#N)cc1S(C)(=O)=O [Example 25, (S)-4-(3-Methyl-2,5-dioxo-1-(3-(trifluoromethyl)phenyl)-2,3,4,5,6,7-hexahydro-1H-cyclopenta[d]pyrimidin-4-yl)-3-(methylsulfonyl)benzonitrile] | – | 2 mL/min/kg | – | –
27 | C[C@H](O)CNC(=O)N1C(=O)N(c2cccc(C(F)(F)F)c2)C2=C(C(=O)CC2)C1c1ccc(C#N)cc1 (some centres unmarked) [Example 41.1] | >2.17 h | 2 mL/min/kg | – | Efflux ratio (Caco-2 cells): 8.9 and 4.8
28 | C[C@H](CO)NC(=O)N1C(=O)N(c2cccc(C(F)(F)F)c2)C2=C(C(=O)CC2)C1c1ccc(C#N)cc1 (some centres unmarked) [Example 41.4] | >2.17 h | 5 mL/min/kg | – | Efflux ratio (Caco-2 cells): 8.7
29 | N#Cc1ccc(C2C3=C(CCC3=O)N(c3cccc(C(F)(F)F)c3)C(=O)N2C(=O)NC2(CO)CC2)cc1 (centres unmarked) [Example 41.5] | – | – | – | Efflux ratio (Caco-2 cells): 8.7; PEBA (Caco-2 cells): 77 ×10⁻⁶ cm/s
30 | N#Cc1ccc(C2C3=C(CCC3=O)N(c3cccc(C(F)(F)F)c3)C(=O)N2C(=O)NC2CCOCC2)cc1 (centres unmarked) [Example 41.16] | >2.17 h | – | – | Efflux ratio (Caco-2 cells): 1.0
31 | CC(C)(O)CCNC(=O)N1C(=O)N(c2cccc(C(F)(F)F)c2)C2=C(C(=O)CC2)C1c1ccc(C#N)cc1 (centres unmarked) [Example 41.17] | >2.17 h | 3 mL/min/kg | – | Efflux ratio (Caco-2 cells): 3.5
32 | N#Cc1ccc(C2C3=C(CCC3=O)N(c3cccc(C(F)(F)F)c3)C(=O)N2C(=O)N[C@@H]2CCC[C@H]2O)cc1 (some centres unmarked) [Example 42.3] | >2.17 h | – | 20 µg/mL | Efflux ratio (Caco-2 cells): 2.4; PEAB (Caco-2 cells): 36.2 ×10⁻⁶ cm/s; PEBA (Caco-2 cells): 86 ×10⁻⁶ cm/s
33 | N#Cc1ccc([C@@H]2C3=C(CCC3=O)N(c3cccc(C(F)(F)F)c3)C(=O)N2C(=O)N[C@H]2CCC[C@@H]2O)cc1 [Example 45.4] | >2.17 h | – | 28 µg/mL | Efflux ratio (Caco-2 cells): 2.0; PEAB (Caco-2 cells): 38.1 ×10⁻⁶ cm/s; PEBA (Caco-2 cells): 77.2 ×10⁻⁶ cm/s
34 | CS(=O)(=O)c1cc(C#N)ccc1[C@H]1NC(=O)N(c2cccc(C(F)(F)F)c2)C2=C1C(=O)CC2 [example 10A, (S)-4-(2,5-Dioxo-1-(3-(trifluoromethyl)phenyl)-2,3,4,5,6,7-hexahydro-1H-cyclopenta[d]pyrimidin-4-yl)-3-(methylsulfonyl)benzonitrile] | – | 0 mL/min/kg | – | AB permeability (comparison in words) (Caco-2 cells; Caco-2, compared to example 44 disclosed in US 2011/0034433): improved AB permeability
